Where a chain is given by its changes, count along the chain named. Like-named read-outs stand apart in the source and are kept apart here. Values belong to the molecule of their own block, whether it stands above or below them.
Tests used:
[1] = target: T1, mouse olfactory (Molf) CNG channel, α homomultimer (Mus musculus, UniProt Q62398, M2V); type: cell-based
T1 sequence (Q62398 1-664 M2V): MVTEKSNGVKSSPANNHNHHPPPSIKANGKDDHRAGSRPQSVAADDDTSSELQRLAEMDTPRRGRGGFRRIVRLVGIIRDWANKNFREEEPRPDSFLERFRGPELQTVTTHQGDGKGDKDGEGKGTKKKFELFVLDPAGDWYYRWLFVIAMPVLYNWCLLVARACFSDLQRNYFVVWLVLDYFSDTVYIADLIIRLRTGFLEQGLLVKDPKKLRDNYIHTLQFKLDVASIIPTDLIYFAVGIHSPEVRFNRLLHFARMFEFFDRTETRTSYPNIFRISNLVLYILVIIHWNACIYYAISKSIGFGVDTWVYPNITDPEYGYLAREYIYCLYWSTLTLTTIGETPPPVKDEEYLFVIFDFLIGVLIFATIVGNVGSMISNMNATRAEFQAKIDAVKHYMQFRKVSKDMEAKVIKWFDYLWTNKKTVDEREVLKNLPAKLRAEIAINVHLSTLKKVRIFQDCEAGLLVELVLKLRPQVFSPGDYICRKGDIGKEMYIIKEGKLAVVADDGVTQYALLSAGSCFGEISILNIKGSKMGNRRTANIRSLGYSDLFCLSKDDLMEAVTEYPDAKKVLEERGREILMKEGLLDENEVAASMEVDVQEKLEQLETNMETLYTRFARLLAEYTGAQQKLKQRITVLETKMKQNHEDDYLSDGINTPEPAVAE

Rolf G204W CNG channel = target: T2, Rolf G204W CNG channel (Rattus norvegicus, UniProt Q00195, G204W); type: cell-based
T2 sequence (Q00195 1-664 G204W): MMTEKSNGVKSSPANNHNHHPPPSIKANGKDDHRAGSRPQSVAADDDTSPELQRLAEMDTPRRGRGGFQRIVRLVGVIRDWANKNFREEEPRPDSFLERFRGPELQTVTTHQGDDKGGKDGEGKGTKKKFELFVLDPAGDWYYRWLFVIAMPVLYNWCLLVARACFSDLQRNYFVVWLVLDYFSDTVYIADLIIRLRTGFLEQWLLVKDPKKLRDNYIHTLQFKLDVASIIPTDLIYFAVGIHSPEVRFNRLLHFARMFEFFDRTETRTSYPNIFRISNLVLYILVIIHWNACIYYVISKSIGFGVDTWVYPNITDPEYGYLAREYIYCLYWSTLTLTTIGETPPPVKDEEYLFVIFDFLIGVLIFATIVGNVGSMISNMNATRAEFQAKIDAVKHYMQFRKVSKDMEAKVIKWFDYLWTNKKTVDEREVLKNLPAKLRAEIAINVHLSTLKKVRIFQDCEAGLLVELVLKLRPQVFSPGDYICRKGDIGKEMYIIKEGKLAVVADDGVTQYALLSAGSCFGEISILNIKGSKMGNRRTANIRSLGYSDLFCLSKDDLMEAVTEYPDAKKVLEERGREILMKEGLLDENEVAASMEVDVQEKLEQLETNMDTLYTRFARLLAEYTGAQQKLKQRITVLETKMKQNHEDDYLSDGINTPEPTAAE

Rolf G204D CNG channel = target: T3, Rolf G204D CNG channel (Rattus norvegicus, UniProt Q00195, G204D); type: cell-based
T3 sequence (Q00195 1-664 G204D): T2 sequence (Q00195 1-664 G204W) with W204D

[2] = target: T4, rat olfactory (Rolf) CNG channel, α homomultimer (Rattus norvegicus, UniProt Q00195); settings: saturating 100 μM cGMP, ref Crary et al. 2000; cited from earlier work
T4 sequence (Q00195 1-664): T2 sequence (Q00195 1-664 G204W) with W204G

[3] = read-out: Percent inhibition by tetracaine

inhibition at 40 µM [1, 3]: 18.8%
IC50 (Rolf G204W CNG channel): 2.2 µM
inhibition at 40 µM (Rolf G204W CNG channel; [3]): 100%
IC50 (Rolf G204D CNG channel): 10.8 µM
Molecule: CCCCNc1ccc(C(=O)OCCN(C)C)cc1 [Tetracaine, tetracaine]

I/Imax of cGMP-activated current ([1]; Molf, 1 μM cGMP, +100 mV): 0.15
Hill coefficient n of cGMP activation (Rolf G204W CNG channel; Rolf G204W, averaged six patches, +100 mV): 1.7
Hill coefficient n of cGMP activation (Rolf G204W CNG channel; Rolf G204W, averaged six patches, −100 mV): 1.7
Hill coefficient n of cGMP activation (Rolf G204W CNG channel; Rolf G204W, single patch, +100 mV): 2.0
Hill coefficient n of cGMP activation (Rolf G204W CNG channel; Rolf G204W, single patch, −100 mV): 2.0
EC50 (Rolf G204W CNG channel; read-out: cGMP K1/2 (half-maximal activation), Rolf G204W, +100 mV, averaged data from six patches): 14 µM
EC50 (Rolf G204W CNG channel; read-out: cGMP K1/2, Rolf G204W, single patch, +100 mV): 14 µM
EC50 (Rolf G204W CNG channel; read-out: cGMP K1/2, Rolf G204W, single patch, −100 mV): 18 µM
Molecule: Nc1nc2c(ncn2[C@@H]2O[C@@H]3COP(=O)(O)O[C@H]3[C@H]2O)c(=O)[nH]1 [cGMP]

inhibition of cGMP-activated current by DAG (in words) ([1]; Molf, 12 μM DAG, saturating cGMP): only partial inhibition
DAG maximal percent inhibition (INmax) ([1]; Molf, saturating 100 μM cGMP): 17%
Hill coefficient n of DAG inhibition ([1]; Molf, saturating 100 μM cGMP): 0.8
DAG maximal percent inhibition (INmax) (Rolf G204W CNG channel; Rolf G204W, 2 mM cGMP): 100%
Hill coefficient n of DAG inhibition (Rolf G204W CNG channel; Rolf G204W, 2 mM cGMP): 3.2
Molecule: diacylglycerol [DAG]
DAG maximal percent inhibition (INmax) [2]: 31%
